In ChEMBL document CHEMBL1201861, “Genomics of Drug Sensitity in Cancer screening data, Wellcome Trust Sanger Institute”:

How the values were obtained:
[1] = tested on: GDM-1; test: cells; format: functional, cell-based, Homo sapiens; details: Homo sapiens, GDM-1;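 also: cell viability readout used to measure growth inhibition of human GDM-1 cells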
Description: SANGER: Inhibition of human GDM-1 cell growth in a cell viability assay.

[2] = tested on: IM-9; test: SANGER: Inhibition of human IM-9 cell growth in a cell viability assay.; format: functional, cell-based; details: Homo sapiens, IM-9
[3] = tested on: IST-SL2; test: cells; format: functional, cell-based, Homo sapiens; details: Homo sapiens, IST-SL2;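 also: growth inhibition of human IST-SL2 cells, read out by a cell viability assay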
Description: SANGER: Inhibition of human IST-SL2 cell growth in a cell viability assay.

[4] = tested on: MHH-CALL-2; test: cells; format: functional, cell-based, Homo sapiens; details: Homo sapiens, MHH-CALL-2;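 also: growth inhibition of the cell line, read out in a cell viability assay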
Description: SANGER: Inhibition of human MHH-CALL-2 cell growth in a cell viability assay.

[5] = tested on: MRK-nu-1; test: cells; format: functional, cell-based, Homo sapiens; details: Homo sapiens, MRK-nu-1;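 also: cell viability assay measuring growth suppression of human MRK-nu-1 cells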
Description: SANGER: Inhibition of human MRK-nu-1 cell growth in a cell viability assay.

[6] = tested on: NCI-H1417; test: cells; format: functional, cell-based, Homo sapiens; details: Homo sapiens, NCI-H1417;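 also: human NCI-H1417 cells, growth inhibition determined with a cell viability readout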
Description: SANGER: Inhibition of human NCI-H1417 cell growth in a cell viability assay.

[7] = tested on: NCI-H1882; test: cells; format: functional, cell-based, Homo sapiens; details: Homo sapiens, NCI-H1882;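 also: growth inhibition of the cell line, determined with a viability assay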
Description: SANGER: Inhibition of human NCI-H1882 cell growth in a cell viability assay.

[8] = tested on: NCI-H2141; test: cells; format: functional, cell-based, Homo sapiens; details: Homo sapiens, NCI-H2141;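 also: growth inhibition of human NCI-H2141 cells, read out with a cell viability assay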
Description: SANGER: Inhibition of human NCI-H2141 cell growth in a cell viability assay.

[9] = tested on: NCI-H345; test: cells; format: functional, cell-based, Homo sapiens; details: Homo sapiens, NCI-H345;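 also: growth inhibition of NCI-H345 cells measured with a cell viability assay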
Description: SANGER: Inhibition of human NCI-H345 cell growth in a cell viability assay.

[10] = tested on: NCI-H889; test: cells; format: functional, cell-based, Homo sapiens; details: Homo sapiens, NCI-H889;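 also: cell growth inhibition of the cell line, read out with a viability assay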
Description: SANGER: Inhibition of human NCI-H889 cell growth in a cell viability assay.

[11] = tested on: P31-FUJ; test: cells; format: functional, cell-based, Homo sapiens; details: Homo sapiens, P31-FUJ;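 also: growth inhibition of P31-FUJ cells, read out with a viability assay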
Description: SANGER: Inhibition of human P31-FUJ cell growth in a cell viability assay.

[12] = tested on: SNU-C1; test: cells; format: functional, cell-based, Homo sapiens; details: Homo sapiens, SNU-C1;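 also: growth inhibition of SNU-C1 human cells, read out by a cell viability assay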
Description: SANGER: Inhibition of human SNU-C1 cell growth in a cell viability assay.

[13] = tested on: CA46; test: cells; format: functional, cell-based, Homo sapiens; details: Homo sapiens, CA46;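 also: growth inhibition of human CA46 cells, read out by a cell viability assay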
Description: SANGER: Inhibition of human CA46 cell growth in a cell viability assay.

Structure (SMILES)	IC50 [1] [µM]	IC50 [2] [µM]	IC50 [3] [µM]	IC50 [4] [µM]	IC50 [5] [µM]	IC50 [6] [µM]	IC50 [7] [µM]	IC50 [8] [µM]	IC50 [9] [µM]	IC50 [10] [µM]	IC50 [11] [µM]	IC50 [12] [µM]	IC50 [13] [µM]
OCCCNc1cc(-c2ccnc(Nc3cccc(Cl)c3)n2)ccn1	> 0.256	> 0.256	0.0249	0.0855	0.0373	> 0.256	> 0.256	0.102	> 0.256	> 0.256	> 0.256	> 0.256	> 0.256
COc1cc(N2CCN(C)CC2)ccc1Nc1ncc2c(n1)N(C)c1ccccc1C(=O)N2C	> 8	> 8	3.82	> 8	> 8	> 8	> 8	> 8	> 8	> 8	> 8	> 8	> 8
CC[C@H](CO)Nc1nc(NCc2ccccc2)c2ncn(C(C)C)c2n1 [SELICICLIB]	> 16	> 16	> 16	> 16	7.13	> 16	> 16	> 16	> 16	> 16	> 16	> 16	> 16
N[C@@H](CSC(c1ccccc1)(c1ccccc1)c1ccccc1)C(=O)O [S-TRITYL-L-CYSTEINE]	2.49	> 5.12	2.26	> 5.12	0.76	> 5.12	2.08	4.36	> 5.12	> 5.12	> 5.12	> 5.12	> 5.12
CCN(CC)CCNC(=O)c1c(C)[nH]c(/C=C2\C(=O)Nc3ccc(F)cc32)c1C [SUNITINIB]	> 8	> 8	6.13	5.77	> 8	> 8	> 8	> 8	> 8	> 8	> 8	> 8	7.58
